Measurements: ChEMBL document CHEMBL1156829 (Proc Natl Acad Sci U S A, 2008)

Key:
Plasmodium falciparum [1] = assay: NOVARTIS: Inhibition of Plasmodium falciparum 3D7 (drug-susceptible) proliferation in erythrocyte-based infection assay; assay type: functional, organism-based; conditions: Plasmodium falciparum, 3D7
Plasmodium falciparum [2] = assay: NOVARTIS: Inhibition of Plasmodium falciparum W2 (drug-resistant) proliferation in erythrocyte-based infection assay; assay type: functional, organism-based; conditions: Plasmodium falciparum, W2; read-out: EC50
[3] = NOVARTIS: Cytotoxicity against human hepatocellular carcinoma cell line (Huh7); assay type: toxicity, cell-based, Huh-7; conditions: Huh7 cells (hepatocellular carcinoma cell line)

| SMILES | EC50 (Plasmodium falciparum [1]) [nM] | EC50 (Plasmodium falciparum [2]) [nM] | CC50 [3] [nM] |
| --- | --- | --- | --- |
| C=CC1CN2CCC1CC2C(O)c1ccnc2ccc(OC)cc12 (stereo not given) | 11.8 | 54.2 | 82500 |
| CC(C)C[C@H](NC(=O)N1CCOCC1)C(=O)N[C@H](/C=C/S(=O)(=O)c1ccccc1)CCc1ccccc1 | 210 | 37.7 | 48800 |
| COc1ccc(NC(=O)C2c3ccccc3C(=O)N(CC(C)C)C2c2cccs2)cc1OC (stereo not given) | 76 | 68.8 | > 100000 |
| CC[C@]1(C2OC(C3O[C@](O)(CO)[C@@H](C)C[C@H]3C)C[C@H]2C)CCC([C@@]2(C)CC[C@@]3(C[C@@H](O)[C@H](C)C([C@H](C)[C@H](OC)C(C)C(=O)O)O3)O2)O1 (stereo not given in full) | 2.79 | < 0.868 | 1290 |
| COc1cc(C(=O)NC2CC2)ccc1OC1CCN(CC(c2ccccc2)c2ccccc2)CC1 | 44.4 | 18.5 | 23500 |
| c1ccc(CCNc2cccc3ccccc23)cc1 | 128 | < 7.52 | > 10000 |
| Cc1ccc(C2Sc3ccccc3NC3=C2C(=O)c2ccccc23)cc1 (stereo not given) | 249 | 46.4 | 68600 |
| CCCCCc1ccc(OCCOCC[n+]2ccccc2)c(CCCCC)c1 | 7.08 | 6.85 | > 10000 |
| CC1(C)C2CCC(C2)C1(C)NC(=S)NN=Cc1ccccn1 (stereo not given) | 34.8 | 38.2 | 54700 |
| Cc1cc(Nc2ccc(OCc3ccccc3)cc2)nc2cc(O)ccc12 | 73.6 | 11.9 | 17200 |
| COC(=O)C1=C(C)NC2=C(C(=O)CC(c3ccc(OC)c(OC)c3)C2)C1c1cccs1 (stereo not given) | 130 | 70.9 | > 100000 |
| COC(=O)C1=C(C)NC(=Cc2cc(C)n(-c3cc(C)ccc3OC)c2C)C1=O | 34.8 | 70.4 | > 100000 |
| Cc1ccn2c(NC(C)(C)CC(C)(C)C)c(-c3ccccc3OC(=O)C(C)(C)C)nc2c1 | 520 | < 7.9 | > 11100 |
| CCOC(=O)C(=O)N1c2ccccc2-c2c(ssc2=S)C1(C)C | 91.6 | 73.5 | > 100000 |
| CC1CCC2C(C)C(=O)OC3OC(C)C4CC1C32OO4 (stereo not given) | 19.1 | 7.62 | > 10000 |
| CCOC(=O)C1=C(C)NC2=C(C(=O)CC(c3ccc(OC)c(OC)c3)C2)C1c1cccc(Cl)c1 (stereo not given) | 88.2 | 55.6 | > 74600 |
| COc1ccc(C2CC(=O)C3=C(C2)NC(C)=C(C(=O)OC2CCCC2)C3c2ccccc2OC)cc1OC (stereo not given) | 212 | 72.8 | > 100000 |
| CCOc1ccc(N(CC)S(=O)(=O)c2cc(Br)cc3c2N(C(C)=O)CC3)cc1 | 125 | 76.1 | > 100000 |
| CCOC(=O)C1=C(C)NC2=C(C(=O)C(C(=O)OCC)C(c3cccc(OC)c3)C2)C1c1ccc([N+](=O)[O-])cc1 (stereo not given) | 54.2 | 37.2 | > 54600 |
| NC(Cc1ccccc1)C(=O)N1CCn2c(nc(-c3ccccc3)c2Nc2ccc3c(c2)OCO3)C1 (stereo not given) | 30.4 | 29.1 | 42800 |
| CC(C)c1nc(N2CCN(C(=O)Nc3ccccc3)CC2)c(C#N)c2c1COC(C)(C)C2 | 53.8 | 67.7 | > 100000 |
| COc1cccc(-c2ccc(O)c(CNC(C)c3cccc4ccccc34)c2)n1 (stereo not given) | 285 | 48.4 | 61200 |
| CCCC(C)C(C(=O)NCc1ccccc1)N1C(=O)c2cc(NC(C)=O)ccc2NC(=O)[C@@H]1c1ccccc1 (stereo not given in full) | > 1250 | < 7.12 | 9210 |
| O=S(=O)(NCCCCNc1ccnc2cc(Cl)ccc12)c1ccc2ccccc2c1 | 268 | 4.95 | 6410 |
| Cc1ccc2c(Cl)c(C(=O)N3CC(C)OC(C)C3)sc2c1 (stereo not given) | 102 | 72 | > 100000 |

| SMILES | EC50 (Plasmodium falciparum [1]) [nM] | EC50 (Plasmodium falciparum [2]) [nM] | CC50 [3] [nM] |
| --- | --- | --- | --- |
| CCOC(=O)C1=C(C)NC2=C(C(=O)C(C(=O)OCC)C(c3ccccc3OC)C2)C1c1ccc(OC)c(OC)c1 (stereo not given) | 83.1 | 74.4 | > 100000 |
| COc1ccc(CCN2C(=S)NC3c4cccc(OC)c4OC2(C)C3C(=O)Nc2ccc(C)cc2C)cc1OC (stereo not given) | 320 | 68.7 | > 100000 |
| Cc1noc(C)c1S(=O)(=O)N(Cc1ccccc1)CC(O)CN1CCC(NC(=O)c2cccc3ccccc23)C1 (stereo not given) | 127 | < 6.52 | > 10000 |
| CC1(C)C2CCC1(C)C(NCc1ccccc1O)C2 (stereo not given) | 107 | 31.8 | 48600 |
| CCOC(=O)C1=C(C)NC2=C(C(=O)CC(c3ccc(OC)c(OC)c3)C2)C1c1cccc(Br)c1 (stereo not given) | 171 | 65.9 | > 100000 |
| COc1cc(COc2cc(N)c(Cl)cc2C(=O)CCC2CCN(CCNS(C)(=O)=O)CC2)cc(OC)c1 | > 788 | < 8.52 | > 13000 |
| COc1cccc(-c2cc(C(=O)Nc3cc(Cl)ccc3O)on2)c1 | 906 | 65 | > 100000 |
| COc1ccc(C2CC(=O)C3=C(C2)NC(=O)CC3c2ccc([N+](=O)[O-])cc2)cc1OC (stereo not given) | 346 | 64.9 | > 100000 |
| COc1ccc(CNCc2cc(-c3ccnc4cc(Cl)ccc34)ccc2O)c(OC)c1 | 951 | 38.3 | 59200 |
| CCOC(=O)C1=C(C)NC2=C(C(=O)CC(C)(C)C2)C1c1ccc(Cl)cc1 (stereo not given) | 116 | 67.6 | > 100000 |
| COC(=O)C1=C(C)NC(=Cc2cc(C)n(-c3ccccc3C(F)(F)F)c2C)C1=O | 21.8 | 71 | > 100000 |
| CC(C)(C)NCC(O)Cn1c2ccc(Br)cc2c2cc(Br)ccc21 (stereo not given) | 213 | 14.1 | 20700 |
| c1ccc(Cc2cc[n+](Cc3ccccc3)cc2)cc1 | 144 | 72.5 | > 100000 |
| COc1ccc(C2CC(=O)C3=C(C2)NC(C)=C(C(=O)OC2CCCC2)C3c2ccc(Cl)cc2)cc1OC (stereo not given) | 29 | 16.7 | 21600 |
| CCOC(=O)c1c(C)nc2c(c1C)c(=O)oc1ccccc12 | > 12500 | 70.5 | > 100000 |
| COc1ccc(C(=O)Oc2ccccc2-c2nc3ccccn3c2NC(C)(C)CC(C)(C)C)cc1 | > 1600 | 7.51 | > 10000 |
| CCOC(=O)C1=C(C)NC2=C(C(=O)C(C(=O)OC)C(C)C2)C1c1cc(Br)c(OC)c(OCC)c1 (stereo not given) | 700 | 72.7 | > 100000 |
| COC(=O)c1c(-c2c(Cl)cccc2Cl)noc1/C=C/Nc1ccccc1 | 290 | < 6.76 | > 10000 |
| COc1cc(-c2cc(C(F)(F)F)n3ncc(C(=O)Nc4cc(C)ccc4O)c3n2)cc(OC)c1OC | 180 | 70 | > 100000 |
| COC(=O)C1=C(C)NC2=C(C(=O)CC(c3ccc(OC)c(OC)c3)C2)C1c1ccccc1Br (stereo not given) | 136 | 73.1 | > 100000 |
| CCCCCCCSc1nsc(NC(=O)CCC)n1 | > 1310 | < 6.51 | > 10000 |
| CO[C@H]1[C@H](C)[C@@H]([C@H]2CC[C@H]([C@@H]3CC[C@H]([C@@]4(C)O[C@]5(O[C@H](C[C@@H]6O[C@](O)([C@@H](C)C(=O)O)[C@@H](C)[C@H](O[C@H]7CC[C@H](OC)[C@@H](C)O7)[C@@]6(C)OC)C[C@@H](OC)[C@H]5C)[C@H](C)[C@H]4OC)O3)O2)O[C@](C)(O)[C@@H]1C | 13.3 | 1.93 | 2420 |
| C[C@H](Nc1cncc(-c2ccc(Cl)cc2)n1)c1ccccc1 | 53.7 | 56.2 | 71000 |
| CC(C)NC(=O)N1CCN(C(=O)C(Cc2c[nH]c3ccccc23)NC(=O)Nc2cccc(Cl)c2Cl)CC1C (stereo not given) | 27.2 | 43.9 | 57700 |
| CCOC(=O)C1=C(C)NC(=Cc2cc(C)n(-c3ccc(C)cc3C)c2C)C1=O | 64.4 | 78.5 | > 100000 |
